Experimental data from paper PMC11416981 (Frontiers in Pharmacology, 2024).

How the values were obtained:
Type in all cases: in vivo, humans
[1] = system: PDAP patients with gram-positive bacteria cultured from PD effluent; test: Efficacy of intraperitoneal teicoplanin in PDAP patients (PD effluent analysis, clinical symptoms, infection markers)
Description: According to the ISPD guidelines recommendation ([Li et al., 2022]), doctors can establish a diagnosis of PDAP. […] Participants should not have taken part in other clinical trials in the past 3 months, understand the trial’s purpose, willingly participate, and sign informed consent forms.
(§1) According to the patient’s PD plan, teicoplanin for injection was evenly distributed into each bag of PD fluid before the patient’s PD procedure to ensure that each bag of dialysis fluid entering the peritoneal cavity contained teicoplanin. […] The number of dialysis times per day is determined by the peritoneal function of each peritoneal dialysis patient.
[…] This assessment considered primary efficacy endpoints, secondary efficacy endpoints, and primary safety endpoints. The primary efficacy endpoints in this study are: 1) White blood cell count in PD effluent (p-WBC) < 100 × 10^6/L; 2) Percentage of neutrophilic granulocytes in PD effluent (p-NE%) < 50%; 3) Resolution of abdominal pain, absence of fever, and clarity of PD effluent in clinical signs of patients. According to ISPD guidelines, meeting all three criteria or two of the three constitutes a cure, while meeting one is classified as partial relief. The efficacy calculation involves determining the proportion of cured and partially relieved patients among the total.
(§2) The secondary efficacy endpoints of this study mainly involve infectious markers: C-reactive protein (CRP) and procalcitonin (PCT); Hematological parameters: white blood cell count (b-WBC), blood neutrophilic granulocyte percentage (b-NE%), and hemoglobin (Hb); Renal function markers: serum creatinine (Scr), urea, uric acid (UA), and albumin (ALB).
However, most patients show significant improvement in clinical symptoms within 1 week.

[2] = Teicoplanin concentration in peritoneal dialysis effluent (PDE) by HPLC
Description: as §1
(§3) All patients received peritoneal dialysate and serum samples. […] Serum samples were collected on the 4th day prior to drug administration. Blood samples were centrifuged at 3,000 rpm for 10 minutes. The upper serum layer was then transferred into labeled EP tubes and stored at −80°C. Peritoneal fluid samples were collected daily after the PD procedure. The peritoneal fluid bag was disinfected with iodine, and peritoneal effluent was withdrawn using a sterile syringe and stored at −80°C.
(§4) An Agilent Zorbax SB-C18 column (4.6 × 250 mm, 5 μm) was used. Methyl p-hydroxybenzoate served as the internal standard. The column temperature was kept at 35°C. The mobile phase comprised acetonitrile - 0.01 mol/L potassium dihydrogen phosphate (26:74, v/v, pH = 2.8 adjusted by phosphoric acid). A flow rate of 1 mL/min was set, with an injection volume of 40 μL. UV detection was conducted at 215 nm, while the column temperature remained at 40°C. The pretreatment and chromatographic methods for detecting teicoplanin in serum and PD effluent are the same (Supplement Material).
Using multiple 1.5 mL centrifuge tubes, 360 μL of bovine serum is added to each tube. Subsequently, 40 μL of the respective standard curve series working solution, 30 μL of the internal standard solution, and 600 μL of acetonitrile are added. The contents are thoroughly mixed by vortexing, centrifuged at 14,000 rpm for 8 minutes, and 100 μL of the supernatant is transferred to sample vials for HPLC analysis.
Perform linear regression fitting using the weighted (1/X^2) least squares method, resulting in the standard curve regression equation y = 0.0262x-0.0124 (R^2 = 0.9994).

[3] = system: PDAP patients; test: Renal function, blood lipid and electrolyte indicators before and after teicoplanin treatment; conditions: post-treatment group n = 36
Description: as §2
There were no significant changes in indicators such as Scr after medication compared to before treatment, and there was no significant difference in the patients' renal function (Table S3).

[4] = Serum teicoplanin concentration by HPLC; conditions: Uncured group n = 7, serum collected on the 4th day prior to drug administration, intraperitoneal 0.2 g daily, HPLC-UV 215 nm, mean ± SD
Description: as §3, §4

[5] = Uncured group n = 7, mean (Q25, Q75)
[6] = Uncured group n = 7, mean ± SD, SD
[7] = number of 36 PDAP patients, intraperitoneal 0.2 g daily, after 7 days
[8] = Cured group n = 29, intraperitoneal 0.2 g daily, HPLC-UV, mean (Q25, Q75)
[9] = Cured group n = 29, intraperitoneal 0.2 g daily, HPLC-UV, mean ± SD, SD
[10] = Uncured group n = 7, intraperitoneal 0.2 g daily, HPLC-UV, mean ± SD, SD

teicoplanin
CRP after treatment [1, 5]: 34.00 (5.20, 69.38) mg/L | PCT after treatment [1, 5]: 0.66 (0.29, 2.87) ng/mL | p-WBC after treatment [1, 5]: 159.00 (112.5, 1023.5) *10^6/L | b-NE% after treatment [1, 6]: 71.08 ± 25.08% | b-WBC after treatment [1, 6]: 6.40 ± 2.28 *10^9/L | p-NE% after treatment [1, 6]: 58.86 ± 33.91% | Fever ([1]; cases (%) in post-treatment group n = 36, pre-treatment 8 (22.3%)): 1 (2.7%) | Diarrhea ([1]; cases (%) in post-treatment group n = 36, pre-treatment 9 (25%)): 1 (2.7%) | Peritoneal dialysate turbidity ([1]; cases (%) in post-treatment group n = 36, pre-treatment 26 (72.2%)): 2 (5.6%) | Abdominal pain ([1]; cases (%) in post-treatment group n = 36, pre-treatment 31 (86.1%)): 3 (8.3%) | overall treatment success rate ([1]; cured plus partial remission among 36 PDAP patients, intraperitoneal 0.2 g daily, assessed after 7 days): 88.9% | patients with treatment failure ([1]; number of 36 PDAP patients (1 died, 3 permanently transitioned to hemodialysis)): 4 | patients cured [1, 7]: 29 | patients in partial remission [1, 7]: 3 | p-Lym% ([1]; post-treatment group n = 36, after 7 days, mean (Q25, Q75), pre-treatment 14.55 (9.85, 29.1)): 72.85 (45.95, 86.45) % | p-Lym (lymphocyte count in PD effluent) ([1]; post-treatment group n = 36, after 7 days, mean (Q25, Q75), pre-treatment 196.00 (91.15, 444.62)): 14.00 (6.25, 49.75) *10^6/L | p-NE ([1]; post-treatment group n = 36, after 7 days, mean (Q25, Q75), pre-treatment 1099.60 (418.57, 3333.62)): 4.00 (1.00, 18.00) *10^6/L | p-WBC (white blood cell count in PD effluent) ([1]; post-treatment group n = 36, after 7 days, mean (Q25, Q75), pre-treatment 1333.5 (573.50, 4475.00)): 28.00 (10.25, 75.00) *10^6/L | PCT ([1]; secondary indicator, post-treatment group n = 36, after 14 days, mean (Q25, Q75), pre-treatment 0.66 (0.30, 2.99)): 0.61 (0.29, 1.15) ng/mL | b-WBC ([1]; secondary indicator, post-treatment group n = 36, after 14 days, mean (Q25, Q75), pre-treatment 6.40 (5.32, 8.00)): 6.20 (5.32, 8.85) *10^9/L | CRP ([1]; secondary indicator, post-treatment group n = 36, after 14 days, mean (Q25, Q75), pre-treatment 37.50 (10.00, 101.27)): 8.30 (3.55, 19.33) mg/L | b-NE% ([1]; secondary indicator, post-treatment group n = 36, after 14 days, mean (Q25, Q75), pre-treatment 77.60 (67.42, 84.95)): 69.10 (59.32, 72.60) % | PDE teicoplanin concentration on Day 5 ([2]; 24-h urine volume 0–200 mL, n = 17, M50 (M25, M75)): 12.85 (8.12, 21.23) mg/L | PDE teicoplanin concentration on Day 5 ([2]; 24-h urine volume 201–537 mL, n = 10, M50 (M25, M75)): 10.17 (7.38, 24.59) mg/L | PDE teicoplanin concentration on Day 5 ([2]; 24-h urine volume >537 mL, n = 9, M50 (M25, M75)): 23.16 (18.89, 39.45) mg/L | Day 3 PDE teicoplanin concentration [2, 8]: 14.17 (6.80, 22.93) mg/L | Day 7 PDE teicoplanin concentration [2, 8]: 20.89 (9.45, 30.23) mg/L | Day 1 PDE teicoplanin concentration [2, 9]: 13.65 ± 3.26 mg/L | Day 5 PDE teicoplanin concentration [2, 9]: 18.98 ± 2.43 mg/L | Day 7 PDE teicoplanin concentration ([2]; Uncured group n = 7, intraperitoneal 0.2 g daily, HPLC-UV, mean (Q25, Q75)): 11.43 (8.42, 13.21) mg/L | Day 1 PDE teicoplanin concentration [2, 10]: 11.48 ± 3.39 mg/L | Day 5 PDE teicoplanin concentration [2, 10]: 12.07 ± 2.68 mg/L | day-5 PDE teicoplanin concentration ([2]; age 49 ~ 61 years old, n = 9, mean ± SD, SD): 10.18 ± 1.68 mg/L | day-5 PDE teicoplanin concentration ([2]; age 62 ~ 71 years old, n = 9, mean ± SD, SD): 20.19 ± 8.62 mg/L | day-5 PDE teicoplanin concentration ([2]; age > 71 years old, n = 9, mean ± SD, SD): 29.46 ± 12.29 mg/L | day-5 PDE teicoplanin concentration ([2]; age ≤ 48 years old, n = 9, mean ± SD, SD): 19.46 ± 10.28 mg/L | day-5 PDE teicoplanin concentration ([2]; body weight 54-60 kg, n = 9, mean ± SD, SD): 20.19 ± 6.74 mg/L | day-5 PDE teicoplanin concentration ([2]; body weight 61-76.5 kg, n = 8, mean ± SD, SD): 15.37 ± 6.39 mg/L | day-5 PDE teicoplanin concentration ([2]; body weight ≤ 53 kg, n = 10, mean ± SD, SD): 24.23 ± 7.34 mg/L | day-5 PDE teicoplanin concentration ([2]; body weight ≥ 76.5kg, n = 9, mean ± SD, SD): 19.27 ± 7.38 mg/L | day-5 PDE teicoplanin concentration ([2]; both G1.5% and G2.5% low calcium peritoneal dialysate, n = 8, mean ± SD, SD): 19.47 ± 9.45 mg/L | PDE teicoplanin concentration on Day 5 ([2]; daily PD frequency 1–3 times, n = 5, mean ± SD, SD): 38.71 ± 16.36 mg/L | PDE teicoplanin concentration on Day 5 ([2]; daily PD frequency 4 times, n = 18, mean ± SD, SD): 12.89 ± 7.28 mg/L | PDE teicoplanin concentration on Day 5 ([2]; daily PD frequency 5–6 times, n = 13, mean ± SD, SD): 17.67 ± 10.23 mg/L | day-5 PDE teicoplanin concentration ([2]; eGFR 4.726 ~ 6.35 mL/min, n = 9, mean ± SD, SD): 28.39 ± 11.47 mg/L | day-5 PDE teicoplanin concentration ([2]; eGFR 6.36 ~ 8.524 mL/min, n = 9, mean ± SD, SD): 18.26 ± 7.45 mg/L | day-5 PDE teicoplanin concentration ([2]; eGFR ≤ 4.725 mL/min, n = 9, mean ± SD, SD): 16.05 ± 5.28 mg/L | day-5 PDE teicoplanin concentration ([2]; eGFR ≥ 8.525 mL/min, n = 9, mean ± SD, SD): 21.21 ± 9.21 mg/L | day-5 PDE teicoplanin concentration ([2]; females, n = 14, mean ± SD, SD): 18.22 ± 6.29 mg/L | day-5 PDE teicoplanin concentration ([2]; fibrinogen 4.2 to 5.2 g/L, n = 9, mean ± SD, SD): 20.72 ± 8.16 mg/L | day-5 PDE teicoplanin concentration ([2]; fibrinogen 5.3 to 6.54 g/L, n = 7, mean ± SD, SD): 17.35 ± 6.45 mg/L | day-5 PDE teicoplanin concentration ([2]; fibrinogen ≤ 4.1 g/L, n = 9, mean ± SD, SD): 30.56 ± 12.32 mg/L | day-5 PDE teicoplanin concentration ([2]; fibrinogen ≥ 6.55 g/L, n = 11, mean ± SD, SD): 14.87 ± 7.07 mg/L | day-5 PDE teicoplanin concentration ([2]; males, n = 22, mean ± SD, SD): 19.25 ± 7.89 mg/L | day-5 PDE teicoplanin concentration ([2]; only G1.5% low calcium peritoneal dialysate, n = 10, mean ± SD, SD): 19.24 ± 10.23 mg/L | day-5 PDE teicoplanin concentration ([2]; only G2.5% low calcium peritoneal dialysate, n = 18, mean ± SD, SD): 24.48 ± 9.23 mg/L | ALB ([3]; mean ± SD, pre-treatment 28.66 ± 4.99, SD): 28.55 ± 5.97 g/L | Scr ([3]; mean ± SD, pre-treatment 772.45 ± 320.15, SD): 739.46 ± 312.14 µmol/L | HDL ([3]; pre-treatment 0.88 ± 0.38): 0.76 ± 0.55 mmol/L | TG ([3]; pre-treatment 1.25 (1.02, 1.74)): 1.21 (1.01, 2.27) mmol/L | LDL ([3]; pre-treatment 1.91 ± 0.81): 1.49 ± 0.69 mmol/L | Ca ([3]; pre-treatment 2.02 (1.86, 2.18)): 2.08 (1.81, 2.26) mmol/L | TC ([3]; pre-treatment 3.49 ± 1.02): 2.97 ± 0.85 mmol/L | eGFR ([3]; pre-treatment 6.35 (4.72, 8.52)): 7.30 (4.90, 8.50) mL/min/1.73m^2 | Urea ([3]; pre-treatment 16.20 (12.55, 21.46)): 16.00 (10.20, 21.30) mmol/L | Na ([3]; pre-treatment 134.75 ± 5.25): 136.40 ± 5.49 mmol/L | Serum teicoplanin concentration [4]: 10.85 ± 4.92
